From patent publication US7968554B2, “Pyrazolo[3,4-d]pyrimidine derivatives” (Hoffman-La Roche Inc., priority 2007, dated 2011)

Biological target: T1, b-Raf wild-type (Homo sapiens, UniProt P15056)
T1 construct: recombinant human b-Raf residues 416-end with N-terminal GST-tag; purchased Upstate 14-530M; host or cells: baculovirus, Sf21 insect cells
Assay: b-Raf wild-type HTRF assay with 6H-MEK as substrate (dose response)
Type: biochemical
Details: kinase enzyme inhibition, 6H-MEK substrate, read-out: bRaf wild-type IC50
Method: Kinase Enzyme Inhibition Assay (IC50)
b-Raf Wild-Type HTRF Assay With 6H-MEK as Substrate (Dose Response)
The assay utilizes 6H-MEK as the substrate. Upon b-Raf WT phosphorylation, phosphorylated 6H-MEK is detected with rabbit anti-phospho-MEK1/2, Eu-labeled anti-rabbit, and APC-labeled anti-6H antibodies.
Reagents and Instruments:
• Enzyme: recombinant human b-Raf residues 416-end with N-terminal GST-tag from Upstate; (expressed by baculovirus in Sf21 insect cells), 0.26 mg/mL (3.87 μM assuming a molecular weight of 67.2 kD) Cat. #14-530M, Lot #25502AU, stored at −80° C. • Substrate: WT full-length 6H-MEK, 4.94 mg/mL (154.4 μM assuming a MW of 32 kD) stored at −15° C. • Antibodies: Rabbit (α-P-(Ser 217/221)-MEK-1/2 Ab (from Cell Signaling, Cat. #9121B, Lot 14); Eu-(α-rabbit IgG (from Wallac, Cat. #AD0083, Lot 318663, 710 ug/mL, 4.4 μM); (α-6H-SureLight-APC (from Martek, Cat. #AD0059H, Lot E012AB01, 3.03 μM). • Reader: Envision from PerkinElmer, HTRF reading mode with 412 mirror • Assay Plate: Matrix all-black polypropylene plates (Cat. #4344) • Others: Weidman 384 polypropylene plates (REMP) for compound plate. Assay Procedure: • (1) Prepare Kinase Assay Buffer (KAB): 50 mM HEPES (HyClone) pH7, 10 mM MgCl2, 1 mM DTT, 0.1 mM […], and 0.3 mg/ml BSA. • (2) Prepare 6H-MEK (150 nM) in KAB. Add 12 μL/well to the assay plate. • (3) Prepare ATP (66 μM) in KAB. • (4) Dilute compounds to 2.4 mM and any positive controls to 480 μM in DMSO. Perform 10-point 3× dilution in DMSO. Withdraw 2.5 μL/well of DMSO solution and add to 27.5 μL/well ATP solution in (3). • (5) Mix, then add 6 μL/well of solution in (4) to the assay plate for a DMSO concentration of 2.1% during MEK phosphorylation. • (6) Prepare b-Raf WT (100 μM) in KAB. • (7) Add 6 μL/well of KAB in columns 1-2 and 6 μL/well of b-Raf WT in columns 3-24. • (8) Incubate at 37° C. for 30 min. • (9) Prepare rabbit (α-P-(Ser 217/221 )-MEK-1/2 Ab (1:200 from stock) in AB1: 50 mM HEPES pH7, 0.2 mg/ml BSA, and 43 mM EDTA. • (10) To stop reaction, add 6 μL/well of solution from (9) to the assay plate and incubate at 37° C. for 30 min. • (11) Prepare Eu-(α-rabbit IgG (9 nM) and (α-6H-SureLight-APC (180 nM) in AB2: 50 mM HEPES pH7 and 0.2 mg/mL BSA. • (12) Add 6 μL/well of solution from (11) to the assay plate. • (13) For determining the spectrum cross talk factor, prepare 2 samples following steps (1) to (10). For the blank sample, add 6 μL/well of AB2. For the cross talk factor sample, add 6 μL/well of Eu-anti rabbit IgG (9 nM). • (14) Incubate at room temperature for 1.5 hours. • (15) Read HTRF signals at 615 nm and 665 nm on the Envision. Normalize HTRF signals after spectrum cross-talk correction. b-Raf V600E Mutant HTRF Assay With 6H-MEK as Substrate (Dose Response) Assay Principle: […]

T1 sequence (P15056 416-766 limits assumed): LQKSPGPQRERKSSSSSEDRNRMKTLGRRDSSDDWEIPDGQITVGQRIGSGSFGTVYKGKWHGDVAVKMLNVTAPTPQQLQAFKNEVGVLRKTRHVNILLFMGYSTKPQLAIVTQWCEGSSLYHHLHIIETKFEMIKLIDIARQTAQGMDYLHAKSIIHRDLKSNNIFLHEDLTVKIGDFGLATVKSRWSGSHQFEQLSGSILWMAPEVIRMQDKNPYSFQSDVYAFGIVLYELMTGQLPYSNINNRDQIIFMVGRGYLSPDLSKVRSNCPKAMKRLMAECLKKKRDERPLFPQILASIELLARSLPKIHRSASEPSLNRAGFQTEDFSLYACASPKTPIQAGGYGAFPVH

Compound | IC50 [µM]
Cc1ccc(NC(=O)c2cccc(Cl)c2)cc1OCc1nn(C)c2ncnc(N)c12 [Example 11, N-[3-(4-Amino-1-methyl-1H-pyrazolo[3,4-d]pyrimidin-3-ylmethoxy)-4-methyl-phenyl]-3-chloro-benzamide] | < 10
Cc1ccc(NC(=O)c2ccc(NCCO)c(Cl)c2)cc1OCc1nn(C)c2ncnc(N)c12 [Example 9, N-[3-(4-Amino-1-methyl-1H-pyrazolo[3,4-d]pyrimidin-3-ylmethoxy)-4-methyl-phenyl]-3-chloro-4-(2-hydroxy-ethylamino)-benzamide] | < 10
Cc1noc(-c2ccc(C)c(OCc3nn(C)c4ncnc(N)c34)c2)n1 [Example 13, 4-Amino-1-1-methyl-3-[2-methyl-5-(3-methyl-[1,2,4]oxadiazol-5-yl)-phenoxymethyl]-1H-pyrazolo[3,4-d]pyrimidine] | > 10
Cc1ccc(C(=O)Nc2ccc(Cl)cc2)cc1OCc1nn(C)c2ncnc(N)c12 [Example 17, 3-(4-Amino-1-methyl-1H-pyrazolo[3,4-d]pyrimidin-3-ylmethoxy)-N-(4-chloro-phenyl)-4-methyl-benzamide] | < 10
Cc1nnc(-c2ccc(C)c(OCc3nn(C)c4ncnc(N)c34)c2)o1 [Example 21, 1-Methyl-3-[2-methyl-5-(5-methyl-[1,3,4]oxadiazol-2-yl)-phenoxymethyl]-1H-pyrazolo[3,4-d]pyrimidin-4-ylamine] | > 10
Cc1ccc(OCc2ccc(Cl)cc2)cc1OCc1nn(C)c2ncnc(N)c12 [Example 19, 3-[5-(4-Chloro-benzyloxy)-2-methyl-phenoxymethyl]-1-methyl-1H-pyrazolo[3,4-d]pyrimidin-4-ylamine] | < 10
Cn1nc(COc2cccc(OCc3ccccc3)c2)c2c(N)ncnc21 [Example 7, 3-(3-Benzyloxy-phenoxymethyl)-1-methyl-1H-pyrazolo[3,4-d]pyrimidin-4-ylamine] | > 10
Cc1ccc(OCc2ccccc2)cc1OCc1nn(C)c2ncnc(N)c12 [Example 15, 3-(5-Benzyloxy-2-methyl-phenoxymethyl)-1-methyl-1H-pyrazolo[3,4-d]pyrimidin-4-ylamine] | < 10
